# Results taken from ChEMBL document CHEMBL3352421, “Development of a new benzophenone-diketopiperazine-type potent antimicrotubule agent possessing a 2-pyridine structure” (ACS Med Chem Lett, 2014).
# Calls of active or inactive are those of the source. The calls are words filed in the database; no cut-off is given here.
# How the values were obtained:
# HT-29 [1] = assay: Cytotoxicity against human HT-29 cells after 48 hrs by XTT/PMS assay; type: functional, cell-based; conditions: HT-29, 48 h
# Tubulin [2] = target: T1, Tubulin (Sus scrofa, UniProt P02554+P02550); assay: Binding affinity to porcine tubulin incubated for 1 hr by spectrofluorometry; type: protein assay
# HT-29 [3] = assay: Selectivity index, ratio of IC50 for human PMNC cells to IC50 for human HT-29 cells; type: functional
# HeLa [4] = assay: Potency index, ratio of IC50 for Plinabulin to IC50 for test compound against human HeLa cells after 48 hrs by WST8 assay; type: functional
# HeLa [5] = assay: Induction of multipolar spindle formation in human HeLa cells at 7 nM by DAPI staining; type: functional, cell-based
# A549 [6] = assay: Cytotoxicity against human A549 cells after 48 hrs by WST8 assay; type: functional, cell-based; conditions: A549, 48 h
# [7] = Cytotoxicity against human NHSF46 cells after 48 hrs by XTT/PMS assay; type: cell-based; conditions: NHSF46, 48 h
# A549 [8] = assay: Potency index, ratio of IC50 for Plinabulin to IC50 for test compound against human A549 cells after 48 hrs by WST8 assay; type: functional
# Tubulin [9] = target: T1, Tubulin; assay: Inhibition of porcine tubulin polymerization by spectrophotometry; type: protein assay
# HT-29 [10] = assay: Selectivity index, ratio of IC50 for human NHSF46 cells to IC50 for human HT-29 cells; type: functional
# HeLa [11] = assay: Inhibition of mitotic spindle formation in human HeLa cells at 7 and 30 nM by DAPI staining
# [12] = Cytotoxicity against human PMNC cells after 48 hrs by WST1 assay; type: functional, cell-based
# HeLa [13] = assay: Cytotoxicity against human HeLa cells after 48 hrs by WST8 assay; type: functional, cell-based
# HeLa [14] = assay: Induction of multipolar spindle formation in human HeLa cells at 20 to 30 nM by DAPI staining; type: functional, cell-based
compound,measurement,setting,value
O=C(c1ccccc1)c1cccc(/C=c2\[nH]c(=O)/c(=C/c3ncccn3)[nH]c2=O)c1,IC50,HT-29 [1],0.0753 µM
O=C(c1ccccc1)c1cccc(/C=c2\[nH]c(=O)/c(=C/c3ccccn3)[nH]c2=O)c1,Kd,Tubulin [2],1.3 µM
same,Ratio IC50,HT-29 [3],10
same,Ratio IC50,HeLa [4],3.8
same,Activity,HeLa [5],Active
same,IC50,A549 [6],0.0142 µM
same,IC50,[7],0.077 µM
same,Ratio IC50,A549 [8],2.5
same,IC50,Tubulin [9],1.2 µM
same,Ratio IC50,HT-29 [10],10
same,inhibition,HeLa [11],Active
same,IC50,[12],0.481 µM
same,IC50,HT-29 [1],0.007 µM
same,IC50,HeLa [13],0.0054 µM
CC(=O)N1CC(=O)N/C(=C\c2cccc(C(=O)c3ccccc3)c2)C1=O,IC50,HT-29 [1],8.8 µM
CC(C)(C)c1[nH]cnc1/C=c1\[nH]c(=O)/c(=C/c2ccccc2)[nH]c1=O [PLINABULIN],Kd,Tubulin [2],1 µM
same,IC50,A549 [6],0.0357 µM
same,IC50,Tubulin [9],1.8 µM
same,inhibition,HeLa [11],Active
same,Activity,HeLa [14],Active
same,IC50,HeLa [13],0.0206 µM
O=C1CNC(=O)/C(=C/c2cccc(C(=O)c3ccccc3)c2)N1,IC50,HT-29 [1],> 20 µM
Cc1[nH]cnc1/C=c1\[nH]c(=O)/c(=C/c2cccc(C(=O)c3ccccc3)c2)[nH]c1=O,IC50,HT-29 [1],0.015 µM
O=C(c1ccccc1)c1cccc(/C=c2\[nH]c(=O)/c(=C/c3ccccc3)[nH]c2=O)c1,IC50,HT-29 [1],0.0943 µM
O=C(c1ccccc1)c1cccc(/C=c2\[nH]c(=O)/c(=C/c3cccnc3)[nH]c2=O)c1,IC50,HT-29 [1],> 1 µM
O=C(c1ccccc1)c1cccc(/C=c2\[nH]c(=O)/c(=C/c3ccncc3)[nH]c2=O)c1,IC50,HT-29 [1],> 1 µM
